According to PMC3083246 (Journal of medicinal chemistry, 2011):
“And” between values parts separate entries of the source, which are not always exact repeats. Identical values can stand only once. Like-named read-outs stand apart in the source and are kept apart here.

Experiments:
[1] = tested on: Plasmodium falciparum (3D7); experiment: Antimalarial activity in cell-based assay; settings: 3D7, read-out: IC50, Pf (3D7)
[2] = tested on: OCI-AML-1 cell lines (acute myeloid leukemia); settings: read-out: IC50, AML-1; ref [17]; cited from earlier work
Mt ODCase [3] = target: T1, Mt ODCase (Methanothermobacter thermautotrophicus, UniProt O26232); settings: cited from earlier work
[4] = tested on: Plasmodium falciparum (3D7); settings: read-out: IC50, Pf (3D7); ref [21]; cited from earlier work
CHO = settings: read-out: IC50, CHO; ref [21]; cited from earlier work
Mt ODCase [5] = target: T1, Mt ODCase; experiment: Time-dependent inactivation of Mt ODCase; format: biochemical, Methanobacterium thermoautotrophicum
Mt ODCase [6] = target: T1, Mt ODCase; settings: cited from earlier work; remark: listed apart in the source
human ODCase [7] = target: T2, human ODCase (Homo sapiens, UniProt P11172); settings: read-out: ODCase Ki, human; competitive inhibition; ref [15],[16],[17]; cited from earlier work
[8] = tested on: OCI-AML-1 cell lines (acute myeloid leukemia); experiment: Anticancer activity in cell-based assay; settings: AML1, read-out: IC50, AML-1
Mt ODCase [9] = target: T1, Mt ODCase; experiment: Reversible, competitive inhibition of Mt ODCase; format: biochemical, Methanobacterium thermoautotrophicum
human ODCase [10] = target: T2, human ODCase; experiment: Reversible, competitive inhibition of human ODCase; format: biochemical
ODCase = ODCase (Methanothermobacter thermautotrophicus, UniProt O26232); experiment: Mass spectral analysis of enzyme-inhibitor complexes; set-up: species or system Methanobacterium thermoautotrophicum; settings: enzyme incubated with inhibitor; identical results with human ODCase
[11] = ODCase Ki, Mt, competitive inhibition, ITC, 55°C

`CCN(CC)CCCC(C)Nc1ccnc2cc(Cl)ccc12` (centres unmarked) [Chloroquine] showed an IC50 [1] of 0.022 ± 0.002 µM.
For `O=c1cnn([C@@H]2O[C@H](CO)[C@@H](O)[C@H]2O)c(=O)[nH]1` [Compound 5, 6-azauridine], the IC50 [2] is given as 6.1 µM.
For `NC(=O)c1cc(=O)[nH]c(=O)n1[C@@H]1O[C@H](COP(=O)(O)O)[C@@H](O)[C@H]1O` [Compound 6-CONH2-UMP, 6-Amido-UMP], the Ki (Mt ODCase [3]; read-out: Ki, Mt ODCase, text value in mM, ref [15],[21]) is listed as 1.32 ± 0.04 mM and the Ki (Mt ODCase [3]; read-out: ODCase Ki, Mt, competitive inhibition, ref [15],[21]) is listed as 0.00132 ± 4e-05 mM.
For `O=c1cc(I)n([C@@H]2O[C@H](CO)[C@@H](O)[C@H]2O)c(=O)[nH]1` [Compound 6-I-uridine, 6-iodouridine], the IC50 [4] is given as 6.2 ± 0.7 µM and the IC50 (CHO) is given as 366 ± 45 µM.
For `O=c1cc(I)n([C@@H]2O[C@H](COP(=O)(O)O)[C@@H](O)[C@H]2O)c(=O)[nH]1` [Compound 10, 6-iodo-UMP], the “second-order rate constant relative to 2′-deoxy-2′-fluoro analog 33” value (Mt ODCase [5]; higher than 33) is given as ~ 5 orders of magnitude, the “kobs/[I], M. thermoautotrophicum ODCase” value (Mt ODCase [6]; irreversible inactivation, ref [16],[22]) is given as 260000 M⁻¹ s⁻¹ and the kinact (Mt ODCase [6]; text value for the ribofuranosyl analog, ref [16],[22]) is given as 260000 h⁻¹.
In the case of `N#Cc1cc(=O)[nH]c(=O)n1[C@@H]1O[C@H](COP(=O)(O)O)[C@@H](O)[C@H]1O` [Compound 11, 6-CN-UMP], the Ki (Mt ODCase [3]; read-out: ODCase Ki, Mt, competitive inhibition, ref [15],[16],[17]) is given as 0.0286 ± 0.0021 mM and the Ki (human ODCase [7]) is given as 204 ± 11 µM.
In the case of `[N-]=[N+]=Nc1c(F)c(=O)[nH]c(=O)n1[C@@H]1O[C@H](COP(=O)(O)O)[C@@H](O)[C@H]1O` [Compound 12, 6-azido-5-fluoro-UMP], the “kinact, Mt ODCase” value (Mt ODCase [6]; first-order rate of inactivation, ref [17]) is given as 41 ± 3 h⁻¹ and the Ki (Mt ODCase [6]; read-out: KI, Mt ODCase, time-dependent inactivation, ref [17]) is given as 18.2 ± 0.0036 µM.
With `O=c1cc(I)n([C@@H]2O[C@H](CO)[C@@H](O)[C@H]2F)c(=O)[nH]1` [Compound 27, 2′-Deoxy-2′-fluoro-6-iodo-β-D-uridine] the IC50 [8] was greater than 50 µM.
With `[N-]=[N+]=Nc1cc(=O)[nH]c(=O)n1[C@@H]1O[C@H](CO)[C@@H](O)[C@H]1F` [Compound 28, 6-Azido-2′-deoxy-2′-fluoro-β-D-uridine] the IC50 [8] was greater than 50 µM.
With `N#Cc1cc(=O)[nH]c(=O)n1[C@@H]1O[C@H](CO)[C@@H](O)[C@H]1F` [Compound 29, 6-Cyano-2′-deoxy-2′-fluoro-β-D-uridine] the IC50 [8] was greater than 50 µM.
For `NC(=O)c1cc(=O)[nH]c(=O)n1[C@@H]1O[C@H](CO)[C@@H](O)[C@H]1F` [Compound 30, 6-Amido-2′-deoxy-2′-fluoro-β-D-uridine], the IC50 [8] was greater than 50 µM.
Compound `N#Cc1cn([C@@H]2O[C@H](CO)[C@@H](O)[C@H]2F)c(=O)[nH]c1=O` [Compound 31, 5-Cyano-2′-deoxy-2′-fluoro-β-D-uridine] has an IC50 [8] greater than 50 µM.
With `N#Cc1cc(=O)[nH]c(=O)n1[C@@H]1O[C@H](COP(=O)(O)O)[C@@H](O)[C@H]1F` [Compound 35, 6-Cyano-2′-deoxy-2′-fluoro-β-D-uridine-5′-O-monophosphate] the Ki (Mt ODCase [9]; [11]) was 0.037 ± 0.0025 mM, the Ki (human ODCase [10]) was greater than 2000 µM and the “inhibition of the catalytic activity of human ODCase” value (human ODCase [10]; up to a concentration of 2 mM) was “did not inhibit”. The KI (inactivation) (Mt ODCase [5]; read-out: KI, equilibrium inhibition constant of inactivation, Mt ODCase, time-dependent inactivation) was 30000 ± 6000 µM, the kinact (Mt ODCase [5]; read-out: kinact, Mt ODCase) was 0.000556 s⁻¹ and the “enzyme-inhibitor complex by mass spectrometry” value (ODCase) was “covalent complex”.
With `NC(=O)c1cc(=O)[nH]c(=O)n1[C@@H]1O[C@H](COP(=O)(O)O)[C@@H](O)[C@H]1F` [Compound 36, 6-Amido-2′-deoxy-2′-fluoro-β-D-uridine-5′-O-monophosphate] the Ki (Mt ODCase [9]; Ki, Mt ODCase, text values in mM) was > 3 mM and 3.32 mM, the Ki (Mt ODCase [9]; [11]) was 3.32 ± 0.176 mM and the Ki (human ODCase [10]) was greater than 3000 µM.
With `N#Cc1cn([C@@H]2O[C@H](COP(=O)(O)O)[C@@H](O)[C@H]2F)c(=O)[nH]c1=O` [Compound 37, 5-Cyano-2′-deoxy-2′-fluoro-β-D-uridine-5′-O-monophosphate] the Ki (Mt ODCase [9]; [11]) was 0.36 ± 0.023 mM and the Ki (human ODCase [10]) was 759 ± 88 µM.
